In patent publication US9834558B2, “Substituted bridged urea analogs as sirtuin modulators” (GLAXOSMITHKLINE LLC, priority 2013, dated 2017):
Values belong to the molecule of their own block, whether it stands above or below them.

Target: T1, SIRT1 (Homo sapiens, UniProt Q96EB6)
T1 sequence (Q96EB6 1-747): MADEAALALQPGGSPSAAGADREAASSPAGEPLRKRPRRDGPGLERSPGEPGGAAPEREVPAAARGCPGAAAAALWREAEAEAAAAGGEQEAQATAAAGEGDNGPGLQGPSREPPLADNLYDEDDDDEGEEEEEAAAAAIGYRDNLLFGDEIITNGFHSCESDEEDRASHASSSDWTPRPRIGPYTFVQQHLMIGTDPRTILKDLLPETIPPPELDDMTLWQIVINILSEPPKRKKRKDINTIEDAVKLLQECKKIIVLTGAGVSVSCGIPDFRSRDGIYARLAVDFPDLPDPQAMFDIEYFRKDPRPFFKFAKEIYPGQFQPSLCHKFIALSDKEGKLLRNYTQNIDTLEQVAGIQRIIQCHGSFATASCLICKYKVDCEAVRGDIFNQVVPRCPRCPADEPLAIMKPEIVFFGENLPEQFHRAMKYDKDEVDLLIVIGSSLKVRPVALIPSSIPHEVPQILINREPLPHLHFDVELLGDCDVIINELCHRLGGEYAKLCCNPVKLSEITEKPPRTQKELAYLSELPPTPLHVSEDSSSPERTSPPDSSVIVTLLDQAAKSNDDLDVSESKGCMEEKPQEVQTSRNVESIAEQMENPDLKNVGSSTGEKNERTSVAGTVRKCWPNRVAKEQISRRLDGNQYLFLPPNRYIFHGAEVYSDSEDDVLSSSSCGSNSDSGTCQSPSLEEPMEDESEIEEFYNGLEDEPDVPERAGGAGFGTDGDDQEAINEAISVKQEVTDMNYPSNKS
Experiment: Trp mass spectrometry assay of SIRT1 activation
Format: biochemical
Conditions: for TRP Activity (EC1.5) / Emax: Trp peptide assay; for TRP Activity (EC1.5): EC1.5 = concentration that results in 150% activation of SIRT1; for Emax: maximum activity relative to control (100%), read-out: TRP MAX RESP (percent maximum fold activation)
Method in brief: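 Activation read-out: mass-spec measurement of O-acetyl-ADP-ribose or deacetylated Trp peptide versus compound-free controls, giving EC1.5 and Percent Maximum Activation. Reactions ran 25 min at 25 °C, pH 7.5, with 120 μM βNAD+, 0.5 μM acetylated p53-derived peptide and 10 nM His-tagged SIRT1.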

[1] = concentration giving 150% activation of SIRT1, Trp peptide substrate
[2] = Trp mass spectrometry assay, concentration of test compound giving 150% activation of SIRT1
[3] = Trp mass spectrometry assay, EC1.5 = concentration of test compound that results in 150% activation of SIRT1
[4] = Trp peptide substrate, concentration giving 150% activation of SIRT1

TRP Activity (EC1.5): A (A (EC1.5<1 μM)) | Emax: > 150%
SMILES: Cc1cc(-c2ccc3c(n2)N(C(=O)Nc2ccc4[nH]ncc4n2)[C@H]2CCN3C2)ccn1 [(9S)-5-(2-methylpyridin-4-yl)-N-{1H-pyrazolo[4,3-b]pyridin-5-yl}-1,6,8-triazatricyclo[7.2.1.0 {2,7}]dodeca-2(7),3,5-triene-8-carboxamide]

Tryp AVG EC1.5 (μM) [1]: B (B (EC1.5 1-25 μM))
SMILES: O=C(NCCCc1ccccn1)N1c2nc(-c3cccc(C(F)(F)F)c3)ccc2N2CC[C@H]1C2 [Example 673]

Tryp AVG EC1.5 (μM) [2]: A (A (EC1.5<1 μM))
SMILES: N#Cc1cccc(-c2ccc3c(n2)N(C(=O)Nc2ccccn2)[C@H]2CCCN3C2)c1 [Example 348]

TRP Activity (EC1.5): B (B (EC1.5 1-25 μM)) | Emax: > 150%
SMILES: Cc1cc(-c2ccc3c(n2)N(C(=O)Nc2ccc4[nH]cnc4n2)[C@H]2CCN3C2)ccn1 [(9S)-N-{1H-imidazo[4,5-b]pyridin-5-yl}-5-(2-methylpyridin-4-yl)-1,6,8-triazatricyclo[7.2.1.0 {2,7}]dodeca-2(7),3,5-triene-8-carboxamide]

TRP Activity (EC1.5): C (C (EC1.5>25 μM)) | Emax: < 150%
SMILES: Cc1cc(-c2ccc3c(n2)N(C(=O)N[C@H](C)c2ccccn2)[C@H]2CCN3C2)ccn1 [(9S)-5-(2-methylpyridin-4-yl)-N-[(1R)-1-(pyridin-2-yl)ethyl]-1,6,8-triazatricyclo[7.2.1.0 {2,7}]dodeca-2,4,6-triene-8-carboxamide]

Tryp AVG EC1.5 (μM) [3]: A (A (EC1.5<1 μM))
SMILES: O=C(Nc1cncc(F)c1)N1c2nc(-c3cccc(N4CCOCC4)c3)ccc2N2CCC[C@H]1C2 [Example 559]

Tryp AVG EC1.5 (μM) [2]: B (B (EC1.5 1-25 μM))
SMILES: COc1ccc(-c2ccc3c(n2)N(C(=O)Nc2ccccn2)[C@H]2CCN3C2)cn1 [Example 342]

TRP Activity (EC1.5): B (B (EC1.5 1-25 μM)) | Emax: > 150%
SMILES: O=C(Nc1cnccn1)N1c2nc(N3CCCCC3)ccc2N2CC[C@H]1C2 [(9S)-5-(piperidin-1-yl)-N-(pyrazin-2-yl)-1,6,8-triazatricyclo[7.2.1.0 {2,7}]dodeca-2,4,6-triene-8-carboxamide]

TRP Activity (EC1.5): B (B (EC1.5 1-25 μM))
SMILES: O=C(Nc1ccccn1)N1c2nc(N3CC[C@H](C(F)(F)F)C3)ccc2N2CCC[C@H]1C2 [drawing 1101, (9S)-N-(pyridin-2-yl)-5-[(3S)-3-(trifluoromethyl)pyrrolidin-1-yl]-1,6,8-triazatricyclo[7.3.1.0 {2,7}]trideca-2(7),3,5-triene-8-carboxamide]

Tryp AVG EC1.5 (μM) [1]: A (A (EC1.5<1 μM))
SMILES: O=C(Nc1cccnn1)N1c2nc(-c3cccc(Cl)c3)ccc2N2CC[C@H]1C2 [Example 822]

Tryp AVG EC1.5 (μM) [2]: A (A (EC1.5<1 μM))
SMILES: O=C(Nc1cccnc1)N1c2nc(-c3cccc(Cl)c3)ccc2N2CCC[C@H]1C2 [Example 407]

Tryp AVG EC1.5 (μM) [3]: B (B (EC1.5 1-25 μM))
SMILES: O=C(Nc1cnccn1)N1c2nc(-c3ccnc(N4CC[C@@H](F)C4)c3)ccc2N2CC[C@H]1C2 [Example 462]

Tryp AVG EC1.5 (μM) [3]: C (C (EC1.5>25 μM))
SMILES: Cc1ccncc1-c1ccc2c(n1)N(C(=O)Nc1cccnn1)[C@H]1CCCN2C1 [Example 520]

Tryp AVG EC1.5 (μM) [3]: B (B (EC1.5 1-25 μM))
SMILES: O=C(Nc1ccccn1)N1c2nc(-c3cccc(N4CCOCC4)c3)ccc2N2CCC[C@H]1C2 [Example 536]

Tryp AVG EC1.5 (μM) [4]: A (A (EC1.5<1 μM))
SMILES: O=C(Nc1nc2ccccc2s1)N1c2nc(-c3cccc(C(F)(F)F)c3)ccc2N2CC[C@H]1C2 [Example 90]

TRP Activity (EC1.5): B (B (EC1.5 1-25 μM)) | Emax: > 150%
SMILES: CC(CO)NC(=O)c1ccc2c(n1)N(C(=O)Nc1ccccn1)[C@H]1CCN2C1 (stereo partly drawn) [(9S)-5-N-(1-hydroxypropan-2-yl)-8-N-(pyridin-2-yl)-1,6,8-triazatricyclo[7.2.1.0^{2,7}]dodeca-2(7),3,5-triene-5,8-dicarboxamide]

Tryp AVG EC1.5 (μM) [3]: B (B (EC1.5 1-25 μM))
SMILES: Cc1ccc(-c2ccc3c(n2)N(C(=O)Nc2cncc(F)c2)[C@H]2CCCN3C2)cn1 [Example 477]

The remaining lines, values behind:

SMILES: COC(=O)CNC(=O)c1ccc2c(n1)N(C(=O)Nc1ccccn1)[C@H]1CCN2C1 [methyl 2-{[(9S)-8-[(pyridin-2-yl)carbamoyl]-1,6,8-triazatricyclo[7.2.1.0^{2,7}]dodeca-2(7),3,5-trien-5-yl]formamido}acetate]
TRP Activity (EC1.5): B (B (EC1.5 1-25 μM)) | Emax: > 150%

SMILES: COc1cc(NC(=O)N2c3nc(-c4cncc(Cl)c4)ccc3N3CCC2CC3)ncn1 [Example 552]
Tryp AVG EC1.5 (μM) [3]: C (C (EC1.5>25 μM))

SMILES: O=C(Nc1cccc(-c2cnco2)n1)N1c2nc(-c3cccc(Cl)c3)ccc2N2C[C@@H](O)[C@H]1C2 [Example 693]
Tryp AVG EC1.5 (μM) [1]: A (A (EC1.5<1 μM))

SMILES: C#CCCCNc1nccc(NC(=O)N2c3nc(-c4cccc(C5(C(F)(F)F)N=N5)c4)ccc3N3CC[C@H]2C3)n1 [Example 801]
Tryp AVG EC1.5 (μM) [1]: A (A (EC1.5<1 μM))

SMILES: O=C(CCCCCNC(=O)c1ccc(-c2c3ccc(=O)cc-3oc3cc(O)ccc23)c(C(=O)O)c1)NCc1ccc(NC(=O)N2c3nc(-c4cccc(C(F)(F)F)c4)ccc3N3CC[C@H]2C3)cc1 [Example 547]
Tryp AVG EC1.5 (μM) [3]: C (C (EC1.5>25 μM))

SMILES: O=C(NCc1ccc(NC(=O)N2c3nc(-c4cccc(C(F)(F)F)c4)ccc3N3CC[C@H]2C3)cc1)OC[C@@H]1[C@@H]2CCC#CCC[C@@H]21 [Example 796]
Tryp AVG EC1.5 (μM) [1]: B (B (EC1.5 1-25 μM))

SMILES: CC(C)(C)OC(=O)N1CCc2ccc(NC(=O)N3c4nc(-c5cccc(C(F)(F)F)c5)ccc4N4CC[C@H]3C4)cc2C1 [Example 609]
Tryp AVG EC1.5 (μM) [3]: B (B (EC1.5 1-25 μM))

SMILES: Cc1nc(NC(=O)N2c3nc(-c4cccc(C(F)(F)F)c4)ccc3N3CC[C@H]2C3)nc2c1CCC2 [Example 91]
Tryp AVG EC1.5 (μM) [4]: B (B (EC1.5 1-25 μM))

SMILES: Cc1nc(C)c(-c2ccc3c(n2)N(C(=O)Nc2cccnc2)[C@H]2CCN3C2)s1 [Example 495]
Tryp AVG EC1.5 (μM) [3]: B (B (EC1.5 1-25 μM))

SMILES: Cc1nc(NC(=O)N2c3nc(-c4cccc(Cl)c4)ccc3N3CCC2CC3)sc1C [Example 569]
Tryp AVG EC1.5 (μM) [3]: B (B (EC1.5 1-25 μM))

SMILES: Cc1cncc(NC(=O)N2c3nc(-c4cccc(C(F)(F)F)c4)ccc3N3C[C@@H](O)[C@H]2C3)c1 [Example 670]
Tryp AVG EC1.5 (μM) [1]: A (A (EC1.5<1 μM))

SMILES: N#Cc1ccc2c(n1)N(C(=O)Nc1cnccn1)[C@H]1CCN2C1 [(9S)-5-cyano-N-(pyrazin-2-yl)-1,6,8-triazatricyclo[7.2.1.0 {2,7}]dodeca-2(7),3,5-triene-8-carboxamide]
TRP Activity (EC1.5): C (C (EC1.5>25 μM)) | Emax: < 150%

SMILES: COc1cc(NC(=O)N2c3nc(-c4cccc(Cl)c4)ccc3N3CCC2CC3)nc(OC)n1 [Example 523]
Tryp AVG EC1.5 (μM) [3]: A (A (EC1.5<1 μM))

SMILES: O=C(Nc1cncc(F)c1)N1c2nc(-c3cncc(F)c3)ccc2N2CCC1CC2 [Example 571]
Tryp AVG EC1.5 (μM) [3]: B (B (EC1.5 1-25 μM))

SMILES: O=C(Nc1cnccn1)N1c2nc(-c3ccnc(C(F)(F)F)n3)ccc2N2CC[C@H]1C2 [(9S)-N-(pyrazin-2-yl)-5-[2-(trifluoromethyl)pyrimidin-4-yl]-1,6,8-triazatricyclo[7.2.1.0 {2,7}]dodeca-2(7),3,5-triene-8-carboxamide]
TRP Activity (EC1.5): B (B (EC1.5 1-25 μM)) | Emax: > 150%

SMILES: O=C(Nc1cncc(F)c1)N1c2nc(-c3cccc(C(F)(F)F)c3)ccc2S(=O)(=O)N2CC[C@H]1C2 [Example 460]
Tryp AVG EC1.5 (μM) [3]: B (B (EC1.5 1-25 μM))

SMILES: O=C(Nc1cncc(F)c1)N1c2nc(-c3cncc(C(F)(F)F)c3)ccc2N2C[C@@H](O)[C@H]1C2 [Example 691]
Tryp AVG EC1.5 (μM) [1]: B (B (EC1.5 1-25 μM))
